{"source": "patent US7226940B2", "about": "“Substituted heterocycles for the treatment of diabetes and other diseases” (Incyte San Diego, Inc., priority 2004, dated 2007)", "key": {"db/db mutant mice": {"tested_on": "db/db mutant mice", "assay": "Oral administration in the early intervention treatment of type 2 diabetes in db/db mutant mice", "assay_type": "in vivo", "settings": "day 12", "method": "Five week-old female db/db mutant mice (C57BL/KsJ-db +/+ m; Jackson Labs) were housed in a fixed 12-12-hr artificial light-dark cycle, and maintained on a standard high fat diet (containing at least 11% crude fat) provided ad libitum (Teklad S-2335). Animals were allowed two days to acclimate in this experimental environment prior to the initiation of the study.\nPrior to initiation of treatment, the animals were bled from the tail vein (100–200 μL of whole blood) and serum levels of glucose and triglycerides were measured in duplicate (Trinder kits; Sigma, St. Louis, Mo.). Based on these initial measures, animals (not yet hyperglycemic) were sorted into groups with approximately the same average serum glucose levels. Once sorted, the animals were housed six per cage and provided high fat rodent diet ad libitum. • Experiment I: (Compound 1) • Treatment groups (n=6/group): • 1) db/db control (sesame oil) • 2) Compound 1 (0.3 mg/kg; twice daily) • 3) Compound 1 (1 mg/kg; twice daily) • Experiment II: (Compound 32) • Treatment groups (n=6/group): • 1) db/db control (sesame oil) • 2) Compound 32 (0.3 mg/kg; once daily) • 3) Compound 32 (1 mg/kg; once daily) • 4) Compound 32 (3 mg/kg; once daily) • 3) Rosiglitazone (1 mg/kg; only daily)\nDrug is prepared by mixing Compound 1 or 32 in sesame oil, and administered to animals in a volume of 5 ml/kg/dose. Drug is administered by oral gavage daily at the beginning (Compound 1 and 32) and end of the artificial dark cycle (Compound 1; 12 hour interval).\n(§1) To monitor the effect of Compound 1 or 32, animals were bled following a three-hour fast at the end of the dark cycle on days 12 of the treatment period. Fasting serum glucose and triglyceride levels were measured in duplicate. The blood is kept at room temperature to allow coagulation, after which the serum is separated and assayed for glucose and triglyceride levels."}, "ob/ob mutant mice": {"tested_on": "ob/ob mutant mice", "assay": "Oral administration in the late intervention treatment of type 2 diabetes in ob/ob mutant mice", "assay_type": "in vivo", "settings": "oral gavage 5 mg/kg twice daily, p<0.05 vs control; for fasting serum glucose levels: 1 and 2 weeks of treatment; for fasting serum triglyceride levels: two weeks of treatment", "method": "Five week-old male ob/ob mutant mice (C57BL/6J-ob; Jackson Labs) were housed in a fixed 12-12-hr artificial light-dark cycle, and maintained on a standard diet provided ad libitum. Animals were allowed two days to acclimate in this experimental environment prior to the initiation of the study.\nPrior to initiation of treatment, the animals were bled from the tail vein (100–200 μL of whole blood) and serum levels of glucose and triglycerides were measured in duplicate (Trinder kits; Sigma, St. Louis, Mo.). Based on these initial measures, hyperglycemic animals were sorted into groups with approximately the same average serum glucose levels. Once sorted, the animals were housed six per cage and provided standard rodent diet ad libitum. • Treatment groups (n=6/group): • 1) ob/ob control (sesame oil) • 2) Compound 1 (5mg/kg twice daily)\nDrug is prepared by mixing Compound 1 in sesame oil, and administered to animals in a volume of 3 ml/kg/dose. Drug is administered by oral gavage twice daily at the beginning and end of the artificial dark cycle (12 hour interval).\nas §1, with “1,” for “1 or 32,”, “7 and 14” for “12”"}, "[1]": {"settings": "young db/db mice, oral gavage, 0.3 or 1 mg/kg twice daily"}, "[2]": {"settings": "young db/db mice, oral gavage, 0.3 or 1 mg/kg twice daily, listed as compound 1"}, "[3]": {"settings": "db/db mice, oral gavage, 0.3, 1 or 3 mg/kg once daily, rosiglitazone 1 mg/kg as comparator"}, "[4]": {"settings": "db/db mice, oral gavage, 0.3, 1 or 3 mg/kg once daily, rosiglitazone 1 mg/kg as comparator, listed as compound 32"}}}
{"smiles": "COc1ccc(/C=C2\\SC(=O)NC2=O)cc1-c1cc2c(cc1C)C(C)(C)CCC2(C)C", "note": "[Compound 1, 3-(3,5,5,8,8-Pentamethyl-5,6,7,8-tetrahydro-2-naphthyl)-4-methoxybenzylidene-2,4-thiazolidinedione]", "values": [{"measurement": "fasting serum glucose levels", "setting": "db/db mutant mice; [1]", "result": "remained well within the normal range"}, {"measurement": "fasting serum triglyceride levels", "setting": "db/db mutant mice; [1]", "result": "remained well within the normal range"}, {"measurement": "fasting serum glucose levels", "setting": "db/db mutant mice; [2]", "result": "prevent increases"}, {"measurement": "fasting serum triglyceride levels", "setting": "db/db mutant mice; [2]", "result": "prevent increases"}, {"measurement": "fasting serum glucose levels", "setting": "ob/ob mutant mice; 5 mg/kg", "result": "significant decrease"}, {"measurement": "fasting serum glucose levels", "setting": "ob/ob mutant mice; listed as compound 1, 5 mg/kg", "result": "reduce"}, {"measurement": "fasting serum triglyceride levels", "setting": "ob/ob mutant mice; 5 mg/kg", "result": "significantly reduced"}, {"measurement": "fasting serum triglyceride levels", "setting": "ob/ob mutant mice; listed as compound 1, 5 mg/kg", "result": "reduce"}]}
{"smiles": "Cc1cc2c(cc1-c1cc(/C=C3\\SC(=O)NC3=O)ccc1OC(F)(F)F)C(C)(C)CCC2(C)C", "note": "[Compound 32, 3-(3,5,5,8,8-Pentamethyl-5,6,7,8-tetrahydro-2-naphthyl)-4-trifluoromethoxybenzylidene-2,4-thiazolidinedione]", "values": [{"measurement": "fasting serum glucose levels", "setting": "db/db mutant mice; [3]", "result": "remained well within the normal range"}, {"measurement": "fasting serum triglyceride levels", "setting": "db/db mutant mice; [3]", "result": "remained well within the normal range"}, {"measurement": "fasting serum glucose levels", "setting": "db/db mutant mice; [4]", "result": "equally or more potent than rosiglitazone"}, {"measurement": "fasting serum triglyceride levels", "setting": "db/db mutant mice; [4]", "result": "equally or more potent than rosiglitazone"}]}
